According to patent US7709471B2, “Compounds” (AstraZeneca AB, priority 2006, dated 2010):

What was measured:
[1] = target: recombinant Plk1 (Homo sapiens, UniProt P53350); assay: In Vitro Plk1 Enzyme Assay (SPA, GST-Cdc25C phosphorylation); assay type: biochemical; conditions: ATP 64 nM, 90 minutes, read-out: IC50 (Plk1 enzyme inhibition)
[2] = test system: human colon tumour cell line HT29; assay: Cellular Assay (phosphohistone H3 Ser10 mitotic marker, HT29); assay type: cell-based; conditions: HT-29, 24 h, HT29 cells, read-out: IC50 (cellular assay, phosphohistone H3)

Chain of recombinant Plk1 (P53350 whole entry): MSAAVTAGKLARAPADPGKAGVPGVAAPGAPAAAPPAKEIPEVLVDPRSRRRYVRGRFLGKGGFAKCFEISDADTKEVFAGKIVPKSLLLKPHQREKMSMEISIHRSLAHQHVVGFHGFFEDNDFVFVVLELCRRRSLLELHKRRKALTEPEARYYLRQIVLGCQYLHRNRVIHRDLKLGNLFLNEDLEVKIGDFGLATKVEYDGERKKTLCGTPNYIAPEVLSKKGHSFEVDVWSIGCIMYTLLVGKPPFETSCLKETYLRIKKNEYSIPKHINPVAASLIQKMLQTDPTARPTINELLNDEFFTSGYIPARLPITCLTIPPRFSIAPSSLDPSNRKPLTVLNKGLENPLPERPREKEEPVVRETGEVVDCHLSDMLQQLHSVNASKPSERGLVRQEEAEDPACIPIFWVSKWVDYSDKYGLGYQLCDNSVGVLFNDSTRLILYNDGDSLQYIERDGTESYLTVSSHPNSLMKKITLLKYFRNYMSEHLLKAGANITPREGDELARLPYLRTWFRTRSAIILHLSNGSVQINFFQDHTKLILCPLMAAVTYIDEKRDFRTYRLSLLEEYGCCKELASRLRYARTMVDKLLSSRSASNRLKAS

Row | IC50 [1] [nM] | IC50 [2] [nM] | SMILES
1 | < 1000 | < 30000 | COCCOc1cc(C(=O)NC2CCN(C)CC2)ccc1Nc1ncc2c(n1)N(C1CCCC1)CCC(=O)N2C [Example 195, 4-[(6-cyclopentyl-2-methyl-3-oxo-2,6,8,10-tetrazabicyclo[5.4.0]undeca-8,10,12-trien-9-yl)amino]-3-(2-methoxyethoxy)-N-(1-methyl-4-piperidyl)benzamide]
2 | < 300 | < 300 | CCN1CCCC1CNC(=O)c1ccc(Nc2ncc3c(n2)N(C2CCCC2)CCC(=O)N3C)c(OC)c1 (centres unmarked) [Example 15, 4-[(6-cyclopentyl-2-methyl-3-oxo-2,6,8,10-tetrazabicyclo[5.4.0]undeca-8,10,12-trien-9-yl)amino]-N-[(1-ethylpyrrolidin-2-yl)methyl]-3-methoxy-benzamide]
3 | < 1000 | < 30000 | CN1C(=O)CCN(C2CCCC2)c2nc(Nc3ccc(Cl)c(CO)c3)ncc21 [Example 131, 9-[[4-chloro-3-(hydroxymethyl)phenyl]amino]-6-cyclopentyl-2-methyl-2,6,8,10-tetrazabicyclo[5.4.0]undeca-8,10,12-trien-3-one]
4 | < 300 | < 300 | COc1cc(C(=O)NC2CCN(C)CC2)ccc1Nc1ncc2c(n1)N(C1CCCCC1)CC1(CC1)C(=O)N2C [Example 430, 4-(9′-cyclohexyl-5′-methyl-6′-oxo-5′,6′,8′,9′-tetrahydrospiro[cyclopropane-1,7′-pyrimido[5,4-b][1,4]diazepine]-2′-ylamino)-3-methoxy-N-(1-methyl-4-piperidyl)benzamide]
5 | < 300 | < 300 | CN1CC[C@@H](NC(=O)c2cc(Cl)c(Nc3ncc4c(n3)N(C3CCCC3)CCC(=O)N4C)cc2F)C1 [Example 325, 5-chloro-4-[(2-cyclopentyl-6-methyl-5-oxo-2,6,9,11-tetrazabicyclo[5.4.0]undeca-7,9,11-trien-10-yl)amino]-2-fluoro-N-[(3R)-1-methylpyrrolidin-3-yl]benzamide]
6 | < 300 | < 1000 | COc1ccc(NC(C)=O)cc1Nc1ncc2c(n1)N(C1CCCC1)CCC(=O)N2C [Example 176, N-[3-[(6-cyclopentyl-2-methyl-3-oxo-2,6,8,10-tetrazabicyclo[5.4.0]undeca-8,10,12-trien-9-yl)amino]-4-methoxy-phenyl]acetamide]
7 | < 300 | < 300 | CNCCCNC(=O)c1ccc(Nc2ncc3c(n2)N(C2CCCC2)CCC(=O)N3C)c(OC)c1 [Example 44, 4-[(6-cyclopentyl-2-methyl-3-oxo-2,6,8,10-tetrazabicyclo[5.4.0]undeca-8,10,12-trien-9-yl)amino]-3-methoxy-N-(3-methylaminopropyl)benzamide]
8 | < 300 | < 300 | COc1cc(C(=O)NC2CCC(N(C)C)CC2)ccc1Nc1ncc2c(n1)N(C1CCCC1)CCC(=O)N2C (centres unmarked) [Example 60, 4-[(6-cyclopentyl-2-methyl-3-oxo-2,6,8,10-tetrazabicyclo[5.4.0]undeca-8,10,12-trien-9-yl)amino]-N-(4-dimethylaminocyclohexyl)-3-methoxy-benzamide]
9 | < 300 | < 30000 | COc1cc(C(=O)NC2CCN(C)CC2)ccc1Nc1ncc2c(n1)N(c1ccccc1)CCC(=O)N2C [Example 221, 3-methoxy-4-[(2-methyl-3-oxo-6-phenyl-2,6,8,10-tetrazabicyclo[5.4.0]undeca-8,10,12-trien-9-yl)amino]-N-(1-methyl-4-piperidyl)benzamide]
10 | < 300 | < 30000 | COc1cc(C(=O)NC2CCN(C)CC2)ccc1Nc1ncc2c(n1)N(C)CCC(=O)N2C [Example 5, 4-[(2,6-Dimethyl-5-oxo-2,6,9,11-tetrazabicyclo[5.4.0]undeca-7,9,11-trien-10-yl)amino]-3-methoxy-N-(1-methyl-4-piperidyl)benzamide]
11 | < 300 | < 300 | COc1cc(C(=O)NC2CCN(C(C)C)CC2)ccc1Nc1ncc2c(n1)N(C1CCCC1)CCC(=O)N2C [Example 49, 4-[(6-cyclopentyl-2-methyl-3-oxo-2,6,8,10-tetrazabicyclo[5.4.0]undeca-8,10,12-trien-9-yl)amino]-3-methoxy-N-(1-propan-2-yl-4-piperidyl)benzamide]
12 | < 1000 | < 30000 | CN1C(=O)CCN(C2CCCC2)c2nc(Nc3ccc(C(=O)NC4CCCCC4)cc3)ncc21 [Example 89, N-cyclohexyl-4-[(6-cyclopentyl-2-methyl-3-oxo-2,6,8,10-tetrazabicyclo[5.4.0]undeca-8,10,12-trien-9-yl)amino]benzamide]
13 | < 300 | < 30000 | CN1CCC(NC(=O)c2ccc(Nc3ncc4c(n3)N(c3ccccc3)CCC(=O)N4C)cc2)CC1 [Example 224, 4-[(2-methyl-3-oxo-6-phenyl-2,6,8,10-tetrazabicyclo[5.4.0]undeca-8,10,12-trien-9-yl)amino]-N-(1-methyl-4-piperidyl)benzamide]
14 | < 100000 | < 30000 | O=C1CCN(C2CCCC2)c2nc(Nc3ccc(C(=O)NCCN4CCOCC4)cc3Cl)ncc2N1 [Example 257, 3-chloro-4-[(6-cyclopentyl-3-oxo-2,6,8,10-tetrazabicyclo[5.4.0]undeca-8,10,12-trien-9-yl)amino]-N-(2-morpholin-4-ylethyl)benzamide]
15 | < 300 | < 300 | CCN(CC)CCCC(C)NC(=O)c1ccc(Nc2ncc3c(n2)N(C2CCCC2)CCC(=O)N3C)c(OC)c1 (centres unmarked) [Example 17, 4-[(6-cyclopentyl-2-methyl-3-oxo-2,6,8,10-tetrazabicyclo[5.4.0]undeca-8,10,12-trien-9-yl)amino]-N-(5-diethylaminopentan-2-yl)-3-methoxy-benzamide]
16 | < 300 | < 300 | CCN1CCC(NC(=O)c2ccc(Nc3ncc4c(n3)N(C3CCCC3)CCC(=O)N4C)c(Cl)c2)CC1 [Example 316, 3-chloro-4-[(2-cyclopentyl-6-methyl-5-oxo-2,6,9,11-tetrazabicyclo[5.4.0]undeca-7,9,11-trien-10-yl)amino]-N-(1-ethyl-4-piperidyl)benzamide]
17 | < 100000 | < 300 | CCN1CCC(NC(=O)c2ccc(Nc3ncc4c(n3)N(C3CCCCC3)CC3(CC3)C(=O)N4C)c(OC)c2)CC1 [Example 433, 4-(9′-cyclohexyl-5′-methyl-6′-oxo-5′,6′,8′,9′-tetrahydrospiro[cyclopropane-1,7′-pyrimido[5,4-b][1,4]diazepine]-2′-ylamino)-N-(1-ethyl-4-piperidyl)-3-methoxy-benzamide]
18 | < 300 | < 300 | Cc1cc(C(=O)NC2CCN(C)CC2)ccc1Nc1ncc2c(n1)N(C1CCCC1)CCC(=O)N2C [Example 193, 4-[(6-cyclopentyl-2-methyl-3-oxo-2,6,8,10-tetrazabicyclo[5.4.0]undeca-8,10,12-trien-9-yl)amino]-3-methyl-N-(1-methyl-4-piperidyl)benzamide]

Row | SMILES | IC50 [1] [nM] | IC50 [2] [nM]
19 | COc1cc(C(=O)NC2CN3CCC2CC3)ccc1Nc1ncc2c(n1)N(C(C)C)CCC(=O)N2C (centres unmarked) [Example 206, N-(1-azabicyclo[2.2.2]oct-8-yl)-3-methoxy-4-[(2-methyl-3-oxo-6-propan-2-yl-2,6,8,10-tetrazabicyclo[5.4.0]undeca-7,9,11-trien-9-yl)amino]benzamide] | < 300 | < 300
